The structures appear in SMILES notation.

Usually EC50 stands for the midpoint of the concentration-response curve.

In this assay the test system is Glo-Response ARE-luc2P HEK293 cell line. Briefly: ARE luciferase reporter cell-based assay.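 Also: luciferase signal tracks Nrf2 activation of the ARE once compounds disrupt KEAP1-Nrf2 binding, read with One-Glo reagent, DMSO serving as low control.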 The following applies: Homo sapiens, HEK293, 24 h, average of results obtained. (In a reporter assay the amount or activity of a reporter protein is the signal.)
Molecule `Cc1ccc([C@H](c2ccn3c(C(F)(F)F)nnc3c2C)C(C)(C)C(=O)O)cc1CN1CC2(CCOCC2)Oc2nc(CCC(=O)NCCOCCN)ccc2S1(=O)=O` (single isomer, unassigned) [Example 344, (*R)-3-(3-((7′-(3-((2-(2-Aminoethoxy)ethyl)amino)-3-oxopropyl)-1′,1′-dioxido-2,3,5,6-tetrahydrospiro[pyran-4,4′-pyrido[2,3-b][1,4,5]oxathiazepin]-2′(3′H)-yl)methyl)-4-methylphenyl)-2,2-dimethyl-3-(8-methyl-3-(trifluoromethyl)-[1,2,4]triazolo[4,3-a]pyridin-7-yl)propanoic Acid] gave a concentration for a half-maximal effect (EC50) of 4930 nM.

As for `Cc1cc2cc([C@@H](c3ccc(C)c(CN4CC5(CCOCC5)Oc5nc(OCCN6CCCC6)c(C)cc5S4(=O)=O)c3)C(C)(C)C(=O)O)n(C)c2nn1` (single isomer, unassigned) [Example 346, (*S)-3-(3,7-Dimethyl-7H-pyrrolo[2,3-c]pyridazin-6-yl)-2,2-dimethyl-3-(4-methyl-3-((8′-methyl-1′,1′-dioxido-7′-(2-(pyrrolidin-1-yl)ethoxy)-2,3,5,6-tetrahydrospiro[pyran-4,4′-pyrido[2,3-b][1,4,5]oxathiazepin]-2′(3′H)-yl)methyl)phenyl)propanoic Acid], the 50% effective concentration (EC50) amounted to 49.8 nM.

As for `Cc1cc2cc([C@H](c3ccc(C)c(CN4CC5(CCOCC5)Oc5nc(OCCN6CCCC6)c(C)cc5S4(=O)=O)c3)C(C)(C)C(=O)O)n(C)c2nn1` (single isomer, unassigned) [Example 347, (*R)-3-(3,7-Dimethyl-7H-pyrrolo[2,3-c]pyridazine-6-yl)-2,2-dimethyl-3-(4-methyl-3-((8′-methyl-1′,1′-dioxido-7′-(2-(pyrrolidine-1-yl)-ethoxy)2,3,5,6-tetrahydrospiro[pyran-4,4′-pyrido[2,3-b][1,4,5]oxathiazepin]-2′,(3′H)-yl)methyl)phenyl)propanoic Acid], the EC50 is 3580 nM.

Molecule `Cc1cc2cc([C@@H](c3ccc(C)c(CN4CC5(CCOCC5)Oc5nc(OCCN6CCCCC6)c(C)cc5S4(=O)=O)c3)C(C)(C)C(=O)O)n(C)c2nn1` (single isomer, unassigned) [Example 348, (*S)-3-(3,7-Dimethyl-7H-pyrrolo[2,3-c]pyridazine-6-yl)-2,2-dimethyl-3-(4-methyl-3-((8′-methyl-1′,1′-dioxido-7′-(2-(piperidine-1-yl)-ethoxy)2,3,5,6-tetrahydrospiro[pyran-4,4′-pyrido[2,3-b][1,4,5]oxathiazepin]-2′,(3′H)-yl)methyl)phenyl)propanoic Acid] showed a concentration giving a half-maximal response (EC50) of 19.2 nM.

Molecule `Cc1cc2cc([C@H](c3ccc(C)c(CN4CC5(CCOCC5)Oc5nc(OCCN6CCCCC6)c(C)cc5S4(=O)=O)c3)C(C)(C)C(=O)O)n(C)c2nn1` (single isomer, unassigned) [Example 349, (*R)-3-(3,7-Dimethyl-7H-pyrrolo[2,3-c]pyridazine-6-yl)-2,2-dimethyl-3-(4-methyl-3-((8′-methyl-1′,1′-dioxido-7′-(2-(piperidine-1-yl)-ethoxy)2,3,5,6-tetrahydrospiro[pyran-4,4′-pyrido[2,3-b][1,4,5]oxathiazepin]-2′,(3′H)-yl)methyl)phenyl)propanoic Acid] showed an EC50 of 1540 nM.

Turning to `Cc1cc2cc([C@@H](c3ccc(C)c(CN4CC5(CC5)Oc5nc(OCCN6CCCCC6)c(C)cc5S4(=O)=O)c3)C(C)(C)C(=O)O)n(C)c2nn1` (single isomer, unassigned) [Example 350, (*S)-3-(3,7-Dimethyl-7H-pyrrolo[2,3-c]pyridazine-6-yl)-2,2-dimethyl-3-(4-methyl-3-((8′-methyl-1′,1′-dioxido-7′-(2-(piperidine-1-yl)-ethoxy)spiro[cyclopropane-1,4′-pyrido[2,3-b][1,4,5]oxathiazepin]-2′,(3′H)-yl)methyl)phenyl)propanoic Acid], the response was half-maximal at 23.4 nM (EC50).

The values above are taken from patent publication US10947252B2, “Inhibitors of KEAP1-Nrf2 protein-protein interaction” (Janssen Pharmaceutica NV, priority 2018, dated 2021).
